Results published in patent publication US4742053A, “3-Isoquinoliniomethyl cephalosporin derivatives” (Banyu Pharmaceutical Co., Ltd., priority 1984, dated 1988).
Values after ≈ are worked out from the molar mass of the structure shown. Read-outs that look alike come from different tables or passages of the source.

Columns and labels:
Assay in all cases: MIC by agar plate dilution method
Type in all cases: cell-based
[1] = tested on: A. calcoaceticus No. 14; settings: Acinetobacter calcoaceticus, NO.14, A. calcoaceticus No. 14; 10^6 CFU/ml; read-out: Minimum Inhibitory Concentration
Procedure: (§1) The minimum inhibitory concentrations (MIC: μg/ml) of the compounds of the present invention against various microorganisms were measured by an agar plate dilution method (inoculum size: 10^6 CFU/ml) by using Sensitivity Disk Agar (Nissui) in comparison with Cefotaxime and Ceftazidime as comparative compounds.
(§2) Minimum Inhibitory Concentration (μg/ml; 10^6 CFU/ml)

[2] = tested on: C. freundii No. 7; settings: Citrobacter freundii; C. freundii No. 7; 10^6 CFU/ml; read-out: Minimum Inhibitory Concentration
Procedure: as §1, §2

[3] = tested on: E. cloaceae Nek 39; settings: E. cloaceae Nek 39; 10^6 CFU/ml; read-out: Minimum Inhibitory Concentration
Procedure: as §1, §2

[4] = tested on: E. coli C/Rms149; settings: Escherichia coli, read-out: Minimum Inhibitory Concentration, E. coli C/Rms149; 10^6 CFU/ml
Procedure: as §1, §2

[5] = tested on: E. coli CSH2; settings: Escherichia coli, 10^6 CFU/ml, read-out: Minimum Inhibitory Concentration
Procedure: as §1, §2

[6] = tested on: E. coli CSH; settings: Escherichia coli, 10^6 CFU/ml, read-out: Minimum Inhibitory Concentration
Procedure: as §1, §2

[7] = tested on: E. coli ML1410/Rte16; settings: Escherichia coli, ML1410/RTE16, read-out: Minimum Inhibitory Concentration, E. coli ML1410/Rte16; 10^6 CFU/ml
Procedure: as §1, §2

[8] = tested on: E. coli NIHJJC-2; settings: Escherichia coli, NIHJJC2, E. coli NIHJJC-2; 10^6 CFU/ml; read-out: Minimum Inhibitory Concentration
Procedure: as §1, §2

[9] = tested on: E. coli W3630/Rms212; settings: Escherichia coli, W3630/RMS212, read-out: Minimum Inhibitory Concentration, E. coli W3630/Rms212; 10^6 CFU/ml
Procedure: as §1, §2

[10] = tested on: E. coli W3630/Rms213; settings: Escherichia coli, W3630/RMS213, read-out: Minimum Inhibitory Concentration, E. coli W3630/Rms213; 10^6 CFU/ml
Procedure: as §1, §2

[11] = tested on: K. pneumoniae No. 42; settings: Klebsiella pneumoniae; K. pneumoniae No. 42; 10^6 CFU/ml; read-out: Minimum Inhibitory Concentration
Procedure: as §1, §2

[12] = tested on: P. aeruginosa AK109; settings: Pseudomonas aeruginosa, AK109, P. aeruginosa AK109; 10^6 CFU/ml; read-out: Minimum Inhibitory Concentration
Procedure: as §1, §2

[13] = tested on: P. aeruginosa AKR17; settings: Pseudomonas aeruginosa, AKR17, P. aeruginosa AKR17; 10^6 CFU/ml; read-out: Minimum Inhibitory Concentration
Procedure: as §1, §2

[14] = tested on: P. cepacia 23; settings: Burkholderia cepacia; P. cepacia 23; 10^6 CFU/ml; read-out: Minimum Inhibitory Concentration
Procedure: as §1, §2

[15] = tested on: P. maltophilia IID 1275; settings: Stenotrophomonas maltophilia, IID1275; P. maltophilia IID 1275; 10^6 CFU/ml; read-out: Minimum Inhibitory Concentration
Procedure: as §1, §2

[16] = tested on: P. mirabilis JY10; settings: Proteus mirabilis; P. mirabilis JY10; 10^6 CFU/ml; read-out: Minimum Inhibitory Concentration
Procedure: as §1, §2

[17] = tested on: P. vulgaris No. 33; settings: Proteus vulgaris
Procedure: as §1, §2

[18] = tested on: P. vulgaris OB1043; settings: Proteus vulgaris, OB1043, P. vulgaris OB1043; 10^6 CFU/ml; read-out: Minimum Inhibitory Concentration
Procedure: as §1, §2

[19] = tested on: S. aureus JS-1; settings: Staphylococcus aureus, JS1; S. aureus JS-1; 10^6 CFU/ml; read-out: Minimum Inhibitory Concentration
Procedure: as §1, §2

[20] = tested on: S. aureus NIHJJC-1; settings: Staphylococcus aureus
Procedure: as §1, §2

[21] = tested on: S. marcescens No. 16-2; settings: Serratia marcescens
Procedure: as §1, §2

[22] = P. vulgaris No. 33, 10^6 CFU/ml, read-out: Minimum Inhibitory Concentration
[23] = NIHJJC1, S. aureus NIHJJC-1, 10^6 CFU/ml, read-out: Minimum Inhibitory Concentration
[24] = NO.162, S. marcescens No. 16-2, 10^6 CFU/ml, read-out: Minimum Inhibitory Concentration
[25] = NO.33, read-out: Minimum Inhibitory Concentration

CC(C)(ON=C(C(=O)NC1C(=O)N2C(C(=O)[O-])=C(C[N+]3(C)CCc4cc(O)c(O)cc4C3)CSC12)c1csc(N)n1)C(=O)O (stereo not drawn) [Ex. 15, 7-[(Z)-2-(2-aminothiazol-4-yl)-2-(1-carboxy-1-methylethoxyimino)acetamido]-3-(6,7-dihydroxy-2-methyl-1,2,3,4-tetrahydro-2-isoquinolinium)methyl-3-cephem-4-carboxylate]
MIC [1]: 0.78 µg/mL (≈ 1.21 µM) | MIC [2]: 0.2 µg/mL (≈ 0.309 µM) | MIC [3]: < 0.006 µg/mL | MIC [4]: 0.0125 µg/mL (≈ 0.0193 µM) | MIC [5]: 0.025 µg/mL (≈ 0.0387 µM) | MIC [6]: 0.05 µg/mL (≈ 0.0773 µM) | MIC [7]: 0.025 µg/mL (≈ 0.0387 µM) | MIC [8]: 0.025 µg/mL (≈ 0.0387 µM) | MIC [9]: 0.025 µg/mL (≈ 0.0387 µM) | MIC [10]: 0.025 µg/mL (≈ 0.0387 µM) | MIC [11]: 0.05 µg/mL (≈ 0.0773 µM) | MIC [12]: 0.025 µg/mL (≈ 0.0387 µM) | MIC [13]: 0.05 µg/mL (≈ 0.0773 µM) | MIC [14]: 0.025 µg/mL (≈ 0.0387 µM) | MIC [15]: 3.12 µg/mL (≈ 4.82 µM) | MIC [16]: 0.1 µg/mL (≈ 0.155 µM) | MIC [17, 22]: 1 µg/mL (≈ 1.55 µM) | MIC [18]: 0.05 µg/mL (≈ 0.0773 µM) | MIC [19]: 100 µg/mL (≈ 155 µM) | MIC [20, 23]: 12.5 µg/mL (≈ 19.3 µM) | MIC [21, 24]: 0.39 µg/mL (≈ 0.603 µM)

C[N+]1(CC2=C(C(=O)[O-])N3C(=O)C(NC(=O)C(=NOC4CCCC4)c4csc(N)n4)C3SC2)CCc2cc(O)c(O)cc2C1 (stereo not drawn) [Ex. 16-D, 7-[(Z)-2-(2-aminothiazol-4-yl)-2-cyclopentyloxyiminoacetamido]-3-(6,7-dihydroxy-2-methyl-1,2,3,4-tetrahydro-2-isoquinolinium)methyl-3-cephem-4-carboxylate]
MIC [1]: 1.56 µg/mL (≈ 2.48 µM) | MIC [2]: 1.56 µg/mL (≈ 2.48 µM) | MIC [3]: 0.0125 µg/mL (≈ 0.0199 µM) | MIC [4]: 0.025 µg/mL (≈ 0.0398 µM) | MIC [5]: 0.1 µg/mL (≈ 0.159 µM) | MIC [6]: 0.1 µg/mL (≈ 0.159 µM) | MIC [7]: 0.025 µg/mL (≈ 0.0398 µM) | MIC [8]: 0.1 µg/mL (≈ 0.159 µM) | MIC [9]: 0.0125 µg/mL (≈ 0.0199 µM) | MIC [10]: 0.1 µg/mL (≈ 0.159 µM) | MIC [11]: 0.1 µg/mL (≈ 0.159 µM) | MIC [12]: 0.05 µg/mL (≈ 0.0795 µM) | MIC [13]: 0.2 µg/mL (≈ 0.318 µM) | MIC [14]: 0.0125 µg/mL (≈ 0.0199 µM) | MIC [15]: 12.5 µg/mL (≈ 19.9 µM) | MIC [16]: 0.2 µg/mL (≈ 0.318 µM) | MIC [17, 22]: 0.1 µg/mL (≈ 0.159 µM) | MIC [18]: 0.2 µg/mL (≈ 0.318 µM) | MIC [19]: 12.5 µg/mL (≈ 19.9 µM) | MIC ([20]; NIHJJC1, read-out: Minimum Inhibitory Concentration): 1.56 µg/mL (≈ 2.48 µM) | MIC ([21]; NO.162, read-out: Minimum Inhibitory Concentration): 1.56 µg/mL (≈ 2.48 µM)

C[N+]1(CC2=C(C(=O)[O-])N3C(=O)C(NC(=O)C(=NOC4(C(=O)O)CC4)c4csc(N)n4)C3SC2)CCc2cc(O)c(O)cc2C1 (stereo not drawn) [Ex. 17-E, 7-[(Z)-2-(2-aminothiazol-4-yl)-2-(1-carboxy-1-cyclopropoxyimino)acetamido]-3-(6,7-dihydroxy-2-methyl-1,2,3,4-tetrahydro-2-isoquinolinium)methyl-3-cephem-4-carboxylate]
MIC [1]: 0.1 µg/mL (≈ 0.155 µM) | MIC [2]: 1.56 µg/mL (≈ 2.42 µM) | MIC [3]: ≤ 0.05 µg/mL | MIC [4]: ≤ 0.05 µg/mL | MIC [5]: ≤ 0.05 µg/mL | MIC [6]: ≤ 0.05 µg/mL | MIC [7]: ≤ 0.05 µg/mL | MIC [8]: ≤ 0.05 µg/mL | MIC [9]: ≤ 0.05 µg/mL | MIC [10]: ≤ 0.05 µg/mL | MIC [11]: ≤ 0.05 µg/mL | MIC [12]: ≤ 0.05 µg/mL | MIC [13]: 0.1 µg/mL (≈ 0.155 µM) | MIC [14]: ≤ 0.05 µg/mL | MIC [15]: 1.56 µg/mL (≈ 2.42 µM) | MIC [16]: ≤ 0.05 µg/mL | MIC [17, 25]: ≤ 0.05 µg/mL | MIC [18]: ≤ 0.05 µg/mL | MIC [19]: > 25 µg/mL | MIC [20, 23]: 12.5 µg/mL (≈ 19.4 µM) | MIC [21, 24]: 0.39 µg/mL (≈ 0.605 µM)

C[N+]1(CC2=C(C(=O)[O-])N3C(=O)C(NC(=O)C(=NOC4(C(=O)O)CCCC4)c4csc(N)n4)C3SC2)CCc2cc(O)c(O)cc2C1 (stereo not drawn) [Ex. 18-G, 7-[(Z)-2-(2-aminothiazol-4-yl)-2-(1-carboxy-1 cyclopentyloxyimino)acetamido]-3-(6,7-dihydroxy-2-methyl-1,2,3,4-tetrahydro-2-isoquinolinium)methyl-3-cephem-4-carboxylate]
MIC [1]: 3.12 µg/mL (≈ 4.64 µM) | MIC [2]: 0.78 µg/mL (≈ 1.16 µM) | MIC [3]: 0.1 µg/mL (≈ 0.149 µM) | MIC [4]: 0.78 µg/mL (≈ 1.16 µM) | MIC [5]: 0.78 µg/mL (≈ 1.16 µM) | MIC [6]: 0.78 µg/mL (≈ 1.16 µM) | MIC [7]: 0.2 µg/mL (≈ 0.297 µM) | MIC [8]: 0.39 µg/mL (≈ 0.58 µM) | MIC [9]: 0.39 µg/mL (≈ 0.58 µM) | MIC [10]: 0.78 µg/mL (≈ 1.16 µM) | MIC [11]: 1.56 µg/mL (≈ 2.32 µM) | MIC [12]: 0.2 µg/mL (≈ 0.297 µM) | MIC [13]: 0.78 µg/mL (≈ 1.16 µM) | MIC [14]: 0.2 µg/mL (≈ 0.297 µM) | MIC [15]: 100 µg/mL (≈ 149 µM) | MIC [16]: 6.25 µg/mL (≈ 9.29 µM) | MIC [17, 22]: 6.25 µg/mL (≈ 9.29 µM) | MIC [18]: 1.56 µg/mL (≈ 2.32 µM) | MIC [19]: > 100 µg/mL | MIC [20, 23]: 25 µg/mL (≈ 37.2 µM) | MIC [21, 24]: 12.5 µg/mL (≈ 18.6 µM)

C[N+]1(CC2=C(C(=O)[O-])N3C(=O)C(NC(=O)C(=NOC4(C(=O)O)CCC4)c4csc(N)n4)C3SC2)CCc2cc(O)c(O)cc2C1 (stereo not drawn) [Ex. 19, 7-[(Z)-2-(2-aminothiazol-4-yl)-2-(1-carboxy-1-cyclobutoxyimiino)acetamide]-3-(6,7-dihydroxy-2-methyl-1,2,3,4-tetrahydro2-isoquinolinium)methyl-3-cephem-4-carboxylate]
MIC [1]: 0.2 µg/mL (≈ 0.304 µM) | MIC [2]: 0.78 µg/mL (≈ 1.18 µM) | MIC [3]: 0.1 µg/mL (≈ 0.152 µM) | MIC [4]: 0.025 µg/mL (≈ 0.038 µM) | MIC [5]: 0.05 µg/mL (≈ 0.0759 µM) | MIC [6]: 0.05 µg/mL (≈ 0.0759 µM) | MIC [7]: 0.025 µg/mL (≈ 0.038 µM) | MIC [8]: 0.05 µg/mL (≈ 0.0759 µM) | MIC [9]: 0.025 µg/mL (≈ 0.038 µM) | MIC [10]: 0.025 µg/mL (≈ 0.038 µM) | MIC [11]: 0.05 µg/mL (≈ 0.0759 µM) | MIC [12]: 0.025 µg/mL (≈ 0.038 µM) | MIC [13]: 0.1 µg/mL (≈ 0.152 µM) | MIC [14]: 0.0125 µg/mL (≈ 0.019 µM) | MIC [15]: 3.12 µg/mL (≈ 4.74 µM) | MIC [16]: 0.1 µg/mL (≈ 0.152 µM) | MIC [17, 25]: 0.05 µg/mL (≈ 0.0759 µM) | MIC [18]: 0.05 µg/mL (≈ 0.0759 µM) | MIC [19]: 100 µg/mL (≈ 152 µM) | MIC [20, 23]: 25 µg/mL (≈ 38 µM) | MIC [21, 24]: 0.39 µg/mL (≈ 0.592 µM)
